Data reported in the NIST ThermoML archive (doi:10.1016/j.jct.2007.09.002).
± gives the expanded uncertainty stated by the source.

Settings: Liquid; Ebulliometric method (Recirculating still)

| Normal boiling temperature | Compound |
| --- | --- |
| 78.6 ± 0.2 °C | CCO [ethanol] |
| 61.0 ± 0.2 °C | ClC(Cl)Cl [trichloromethane] |
| 102.6 ± 0.2 °C | FC(F)(F)c1ccccc1 [(trifluoromethyl)benzene] |
| 80 ± 0.2 °C | c1ccccc1 [benzene] |
